Like-named read-outs stand apart in the source and are kept apart here.
How the values were obtained:
[1] = cited from earlier work
[2] = type: physicochemical
Experimental: To evaluate buffers with different pH, Dexamethasone sodium phosphate can be dissolved in an elution media (e.g. one of the different embodiments of the invention disclosed herein). […] This concentration was about 10 times the concentration that might be observed if the drug from the typical device was completely eluted in about 75 mL of media.

[3] = Elution of steroid from drug eluting leads/electrodes in conventional media (PBS without additives); type: physicochemical; conditions: conventional media systems, e.g. media with just a surfactant; result in words
From the text: The percent elution was less than 7% in 10 days from the controlled-release device (CRD) leads when PBS ([…]) without any additives was used.

stability with respect to pH (order) [2] | elution in conventional media/solvents [3] | Structure (SMILES) | solubility in water [1] [g/100 mL] | solubility in water ([1]; result in words, listed as dexamethasone sodium phosphate) | solubility in water ([1]; result in words)
– | – | OCc1ccccc1 [Benzyl alcohol, Phenylmethanol] | 4 | – | –
pH 4>pH 7.5>pH 9 | minimal | C[C@@H]1C[C@H]2[C@@H]3CCC4=CC(=O)C=C[C@]4(C)[C@@]3(F)[C@@H](O)C[C@]2(C)[C@@]1(O)C(=O)COP(=O)(O)O [Dexamethasone sodium phosphate] | – | water soluble | freely soluble

From US8497133B1, “Terpene media compositions for eluting compounds from matrices and methods for making and using them” (Medtronic MiniMed, Inc., priority 2009, dated 2013)
